Assay results as given in ChEMBL document CHEMBL3352218, “Structural basis for inhibition of mycobacterial and human adenosine kinase by 7-substituted 7-(Het)aryl-7-deazaadenine ribonucleosides” (J Med Chem, 2014).
Values after ≈ are worked out from the molar mass of the structure shown.

tested on: Mycobacterium tuberculosis; assay: Antimycobacterial activity against multidrug resistant Mycobacterium tuberculosis Praha 131 assessed as microbial growth inhibition incubated for 14 days; format: functional; settings: Praha 131, 336 h

Row | SMILES | MIC [µM]
1 | Nc1ncnc2c1c(-c1ccccc1)cn2[C@@H]1O[C@H](CO)[C@@H](O)[C@H]1O | 8 (≈ 2.74 µg/mL)
2 | COc1ccc(-c2cn([C@@H]3O[C@H](CO)[C@@H](O)[C@H]3O)c3ncnc(N)c23)cc1 | 16 (≈ 5.96 µg/mL)
3 | CSc1ccc(-c2cn([C@@H]3O[C@H](CO)[C@@H](O)[C@H]3O)c3ncnc(N)c23)cc1 | 8 (≈ 3.11 µg/mL)
4 | Nc1ncnc2c1c(-c1cccc3ccccc13)cn2[C@@H]1O[C@H](CO)[C@@H](O)[C@H]1O | 32 (≈ 12.6 µg/mL)
5 | Nc1ncnc2c1c(-c1ccc3ccccc3c1)cn2[C@@H]1O[C@H](CO)[C@@H](O)[C@H]1O | 4 (≈ 1.57 µg/mL)
6 | Nc1ncnc2c1c(-c1ccco1)cn2[C@@H]1O[C@H](CO)[C@@H](O)[C@H]1O | 62.5 (≈ 20.8 µg/mL)
7 | Nc1ncnc2c1c(-c1cccs1)cn2[C@@H]1O[C@H](CO)[C@@H](O)[C@H]1O | 8 (≈ 2.79 µg/mL)
8 | Nc1ncnc2c1c(-c1ccoc1)cn2[C@@H]1O[C@H](CO)[C@@H](O)[C@H]1O | 16 (≈ 5.32 µg/mL)
9 | Nc1ncnc2c1c(-c1ccsc1)cn2[C@@H]1O[C@H](CO)[C@@H](O)[C@H]1O | 8 (≈ 2.79 µg/mL)
10 | Nc1ncnc2c1c(-c1cc3ccccc3o1)cn2[C@@H]1O[C@H](CO)[C@@H](O)[C@H]1O | 16 (≈ 6.12 µg/mL)
11 | Nc1ncnc2c1c(-c1ccc[nH]1)cn2[C@@H]1O[C@H](CO)[C@@H](O)[C@H]1O | 62.5 (≈ 20.7 µg/mL)
12 | Nc1ncnc2c1c(-c1cc[nH]c1)cn2[C@@H]1O[C@H](CO)[C@@H](O)[C@H]1O | 62.5 (≈ 20.7 µg/mL)
13 | Nc1ncnc2c1c(-c1cn[nH]c1)cn2[C@@H]1O[C@H](CO)[C@@H](O)[C@H]1O | 125 (≈ 41.5 µg/mL)
14 | Nc1ncnc2c1c(-c1cc[nH]n1)cn2[C@@H]1O[C@H](CO)[C@@H](O)[C@H]1O | > 250
15 | C#Cc1cn([C@@H]2O[C@H](CO)[C@@H](O)[C@H]2O)c2ncnc(N)c12 | 8 (≈ 2.32 µg/mL)
16 | Nc1ncnc2c1c(-c1c[nH]nn1)cn2[C@@H]1O[C@H](CO)[C@@H](O)[C@H]1O | > 250
17 | Nc1ncnc2c1c(-c1nccs1)cn2[C@@H]1O[C@H](CO)[C@@H](O)[C@H]1O | 125 (≈ 43.7 µg/mL)
18 | Nc1ncnc2c1c(-c1c[nH]cn1)cn2[C@@H]1O[C@H](CO)[C@@H](O)[C@H]1O | > 250

Row | SMILES | MIC [µM]
19 | Nc1ncnc2c1c(-c1ncc[nH]1)cn2[C@@H]1O[C@H](CO)[C@@H](O)[C@H]1O | > 250
20 | Cc1ccc(-c2cn([C@@H]3O[C@H](CO)[C@@H](O)[C@H]3O)c3ncnc(N)c23)cc1C | 8 (≈ 2.96 µg/mL)
21 | CC(C)c1cccc(-c2cn([C@@H]3O[C@H](CO)[C@@H](O)[C@H]3O)c3ncnc(N)c23)c1 | 32 (≈ 12.3 µg/mL)
22 | CC(C)c1ccc(-c2cn([C@@H]3O[C@H](CO)[C@@H](O)[C@H]3O)c3ncnc(N)c23)cc1 | 16 (≈ 6.15 µg/mL)
23 | CC(C)(C)c1ccc(-c2cn([C@@H]3O[C@H](CO)[C@@H](O)[C@H]3O)c3ncnc(N)c23)cc1 | 62.5 (≈ 24.9 µg/mL)
24 | Nc1ncnc2c1c(-c1ccc(C(F)(F)F)cc1)cn2[C@@H]1O[C@H](CO)[C@@H](O)[C@H]1O | 4 (≈ 1.64 µg/mL)
25 | CC(C)Oc1ccc(-c2cn([C@@H]3O[C@H](CO)[C@@H](O)[C@H]3O)c3ncnc(N)c23)cc1 | 32 (≈ 12.8 µg/mL)
26 | Nc1ncnc2c1c(-c1ccc3c(c1)OCO3)cn2[C@@H]1O[C@H](CO)[C@@H](O)[C@H]1O | 8 (≈ 3.09 µg/mL)
27 | COc1cc(-c2cn([C@@H]3O[C@H](CO)[C@@H](O)[C@H]3O)c3ncnc(N)c23)cc(OC)c1OC | 8 (≈ 3.46 µg/mL)
28 | Nc1ncnc2c1c(-c1ccc3c4c(cccc14)CC3)cn2[C@@H]1O[C@H](CO)[C@@H](O)[C@H]1O | 16 (≈ 6.7 µg/mL)
29 | Nc1ncnc2c1c(-c1cc3ccccc3c3ccccc13)cn2[C@@H]1O[C@H](CO)[C@@H](O)[C@H]1O | 32 (≈ 14.2 µg/mL)
30 | Nc1ncnc2c1c(-c1cccc3c1oc1ccccc13)cn2[C@@H]1O[C@H](CO)[C@@H](O)[C@H]1O | 4 (≈ 1.73 µg/mL)
31 | Nc1ncnc2c1c(-c1cccc3c1Oc1ccccc1S3)cn2[C@@H]1O[C@H](CO)[C@@H](O)[C@H]1O | 16 (≈ 7.43 µg/mL)
32 | Nc1ncnc2c1c(-c1cccc3c1Sc1ccccc1S3)cn2[C@@H]1O[C@H](CO)[C@@H](O)[C@H]1O | 125 (≈ 60.1 µg/mL)
33 | Nc1ncnc2c1c(/C=C/c1ccccc1)cn2[C@@H]1O[C@H](CO)[C@@H](O)[C@H]1O | 8 (≈ 2.95 µg/mL)
34 | Nc1ncnc2c1c(-c1ccc(-c3ccccc3)cc1)cn2[C@@H]1O[C@H](CO)[C@@H](O)[C@H]1O | 4 (≈ 1.67 µg/mL)
35 | Nc1ncnc2c1c(-c1ccc(-c3ccc4ccccc4c3)cc1)cn2[C@@H]1O[C@H](CO)[C@@H](O)[C@H]1O | 62.5 (≈ 29.3 µg/mL)
36 | Nc1ncnc2c1c(-c1ccc(COc3cccc4ccccc34)cc1)cn2[C@@H]1O[C@H](CO)[C@@H](O)[C@H]1O | 32 (≈ 16 µg/mL)
